Data from ChEMBL document CHEMBL1158311, “Fusaricide, a new cytotoxic N-hydroxypyridone from Fusarium sp” (J Nat Prod, 1996).
≈ marks a conversion by molar mass, not a printed value.

Experiments:
M109 = assay: Antitumor activity against mouse M109 cells; type: functional
Candida albicans = assay: Antifungal activity against Candida albicans; type: functional
[1] = Inhibition of HIV1 recombinant Rev protein expressed in Escherichia coli binding to HIV1 Rre RNA by liquid scintillation assay; parameters: species or system Human immunodeficiency virus 1
[2] = Inhibition of R17 coat protein binding to [33P]labeled R17 operator RNA
Penicillium chrysogenum = assay: Antifungal activity against Penicillium chrysogenum; type: functional
[3] = Ratio of IC50 for R17 activity to IC50 for HIV1 Rev activity

- MIC (Candida albicans): 16 µg/mL (≈ 54.9 µM)
- IC50 [1]: 40 µg/mL
- IC50 [2]: 75 µg/mL (≈ 257 µM)
- MIC (Penicillium chrysogenum): 8 µg/mL (≈ 27.5 µM)
- Ratio IC50 [3]: < 2
SMILES: CC[C@@H]1Oc2ccn(O)c(=O)c2[C@H]2[C@H](C)C[C@H](C)C[C@]12C [FUSARICIDE]
- Activity (M109): 1 µg/mL
